Test system: Pro-N-cadherin-positive and pro-N-cadherin-negative SUM159 sorted cells
Assay: Clonogenic assay on pro-N-cadherin-sorted cells
Type: cell-based
Details: docetaxel 50, 75, 100, 150 nM for 48 h; pro-N-cadherin positive vs negative population
Procedure: Pro-N-cadherin-positive and pro-N-cadherin-negative SUM159 sorted cells were exposed to the indicated docetaxel concentrations and surviving fraction was determined in a clonogenic assay. Mean# colonies from three wells (+/−SEM) was determined for each cell population.
Pro-N-cadherin-positive and Pro-N-cadherin-negative populations were sorted from untreated SUM159 cells, seeded into 6 well plates ([…]) at varying cell densities, and incubated at 37° C., 5% C02 overnight. The next day, culture medium was removed and treatments were added [no treatment, Docetaxel (50 nM, 75 nM, 100 nM and 150 nM]. After 48 h, treatments were removed, cells were washed with HBSS, and fresh culture medium (lacking drug) was added. Every three days, culture medium was changed and plates were examined for colony formation. To stain colonies, plates were fixed in 10% Acetone/10% Methanol solution for 10 min. Colonies were stained with 2% Crystal Violet for 30 minutes. The plates are then washed with water and allowed to air dry. Plates were imaged on GelCount and colonies were counted with Image J.

SMILES: CC(=O)O[C@@]12CO[C@@H]1C[C@H](O)[C@@]1(C)C(=O)[C@H](O)C3=C(C)[C@@H](OC(=O)[C@H](O)[C@@H](NC(=O)OC(C)(C)C)c4ccccc4)C[C@@](O)([C@@H](OC(=O)c4ccccc4)[C@H]21)C3(C)C [docetaxel]
- surviving fraction (relative resistance of sorted populations): significantly more resistant

From US20190271703A1, “BIOMARKERS AND TREATMENTS FOR METASTATIC CANCER” (DUKE UNIVERSITY, priority 2016, published 2019)
